Experiments:
Toll-like receptor 4 = Toll-like receptor 4 (Homo sapiens, UniProt O00206); test: Antagonist activity at […] stimulated human TRL4 overexpressed in HEK293 cells assessed as inhibition of NF kappa B/Ap-1 activation preincubated with compound for 30 mins followed by […] stimulation measured after 22 hrs by SEAP reporter assay; type: cell-based
Toll-like receptor 7 = target: T1, Toll-like receptor 7 (Homo sapiens, UniProt Q9NYK1); test: Antagonist activity at gardiquimod stimulated TRL7 in human whole blood assessed as inhibition of IL-6 production by ELISA analysis; type: tissue-based
T1 sequence (Q9NYK1 whole entry): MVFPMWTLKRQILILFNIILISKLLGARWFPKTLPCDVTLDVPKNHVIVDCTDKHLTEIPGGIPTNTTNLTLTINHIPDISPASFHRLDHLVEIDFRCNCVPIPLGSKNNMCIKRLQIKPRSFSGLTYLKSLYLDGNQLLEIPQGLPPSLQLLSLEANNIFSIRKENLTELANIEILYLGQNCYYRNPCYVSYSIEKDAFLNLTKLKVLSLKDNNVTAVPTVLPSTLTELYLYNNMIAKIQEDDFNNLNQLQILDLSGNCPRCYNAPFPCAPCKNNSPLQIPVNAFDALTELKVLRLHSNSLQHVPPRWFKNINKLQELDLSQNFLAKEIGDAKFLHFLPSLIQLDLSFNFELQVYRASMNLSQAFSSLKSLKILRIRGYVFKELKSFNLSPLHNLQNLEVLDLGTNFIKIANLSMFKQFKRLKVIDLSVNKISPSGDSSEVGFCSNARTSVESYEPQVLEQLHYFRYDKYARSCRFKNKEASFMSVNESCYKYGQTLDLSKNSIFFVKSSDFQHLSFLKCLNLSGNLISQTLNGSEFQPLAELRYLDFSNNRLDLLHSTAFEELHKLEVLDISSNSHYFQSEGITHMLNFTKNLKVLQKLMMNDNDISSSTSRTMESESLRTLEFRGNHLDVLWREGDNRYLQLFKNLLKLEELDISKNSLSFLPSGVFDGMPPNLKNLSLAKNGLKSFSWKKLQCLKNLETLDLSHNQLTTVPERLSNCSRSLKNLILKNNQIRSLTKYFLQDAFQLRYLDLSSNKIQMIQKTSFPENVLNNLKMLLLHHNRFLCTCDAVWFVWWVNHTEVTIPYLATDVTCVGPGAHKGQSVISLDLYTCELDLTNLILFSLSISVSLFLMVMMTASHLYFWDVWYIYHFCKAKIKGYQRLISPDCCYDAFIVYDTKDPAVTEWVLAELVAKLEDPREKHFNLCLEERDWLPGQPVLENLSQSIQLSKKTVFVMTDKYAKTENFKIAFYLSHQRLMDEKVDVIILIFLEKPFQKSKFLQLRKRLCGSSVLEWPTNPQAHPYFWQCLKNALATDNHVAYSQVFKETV

[1] = Tmax in mouse blood at 15 mg/kg, po; type: ADME, organism-based
Mus musculus [2] = test: Anti-inflammatory activity against MRL/Ipr Systemic lupus erythematosus mouse model assessed as inhibition of proteinuria at 20 mg/kg, po administered for 8 weeks and measured 24 hrs post final dose relative to control; type: functional; design: scale not given: the % may be the effect or the level left; details: time 1368 hrs
Mus musculus [3] = test: Anti-inflammatory activity against MRL/Ipr Systemic lupus erythematosus mouse model assessed as inhibition of urinary NGAL at 1 mg/kg, po administered for 8 weeks and measured 24 hrs post final dose relative to control; type: functional; design: scale not given: the % may be the effect or the level left; details: time 1368 hrs
Toll-like receptor 8 = target: T2, Toll-like receptor 8 (Homo sapiens, UniProt Q9NR97)
T2 sequence (Q9NR97 whole entry): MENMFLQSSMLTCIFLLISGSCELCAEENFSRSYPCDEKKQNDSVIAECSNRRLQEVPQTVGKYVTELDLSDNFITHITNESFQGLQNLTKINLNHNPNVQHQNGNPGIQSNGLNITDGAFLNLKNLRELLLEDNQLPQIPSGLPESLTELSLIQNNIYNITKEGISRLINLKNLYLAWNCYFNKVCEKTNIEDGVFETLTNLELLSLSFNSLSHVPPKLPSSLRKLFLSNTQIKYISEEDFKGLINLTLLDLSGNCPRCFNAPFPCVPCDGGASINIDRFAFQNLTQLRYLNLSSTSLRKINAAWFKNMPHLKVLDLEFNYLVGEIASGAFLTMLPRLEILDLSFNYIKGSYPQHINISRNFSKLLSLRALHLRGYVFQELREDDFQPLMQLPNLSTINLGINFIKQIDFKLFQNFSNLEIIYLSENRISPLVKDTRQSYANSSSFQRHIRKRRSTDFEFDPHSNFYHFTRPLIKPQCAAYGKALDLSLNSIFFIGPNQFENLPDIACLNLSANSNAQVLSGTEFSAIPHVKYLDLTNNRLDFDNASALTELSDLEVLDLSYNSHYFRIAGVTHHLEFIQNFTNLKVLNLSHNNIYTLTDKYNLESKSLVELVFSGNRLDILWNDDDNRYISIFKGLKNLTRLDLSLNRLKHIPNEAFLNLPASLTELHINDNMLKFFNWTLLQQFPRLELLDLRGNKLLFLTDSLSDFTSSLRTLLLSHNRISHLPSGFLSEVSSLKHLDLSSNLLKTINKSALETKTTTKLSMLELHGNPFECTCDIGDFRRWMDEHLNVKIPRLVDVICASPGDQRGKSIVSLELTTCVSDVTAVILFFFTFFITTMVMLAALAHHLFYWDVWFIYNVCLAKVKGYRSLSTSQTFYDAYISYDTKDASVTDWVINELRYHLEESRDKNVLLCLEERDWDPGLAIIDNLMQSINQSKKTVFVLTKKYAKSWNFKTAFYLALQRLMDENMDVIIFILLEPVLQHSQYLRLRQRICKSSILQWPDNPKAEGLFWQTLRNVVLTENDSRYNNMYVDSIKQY

Chain of Toll-like receptor 4 (O00206 whole entry): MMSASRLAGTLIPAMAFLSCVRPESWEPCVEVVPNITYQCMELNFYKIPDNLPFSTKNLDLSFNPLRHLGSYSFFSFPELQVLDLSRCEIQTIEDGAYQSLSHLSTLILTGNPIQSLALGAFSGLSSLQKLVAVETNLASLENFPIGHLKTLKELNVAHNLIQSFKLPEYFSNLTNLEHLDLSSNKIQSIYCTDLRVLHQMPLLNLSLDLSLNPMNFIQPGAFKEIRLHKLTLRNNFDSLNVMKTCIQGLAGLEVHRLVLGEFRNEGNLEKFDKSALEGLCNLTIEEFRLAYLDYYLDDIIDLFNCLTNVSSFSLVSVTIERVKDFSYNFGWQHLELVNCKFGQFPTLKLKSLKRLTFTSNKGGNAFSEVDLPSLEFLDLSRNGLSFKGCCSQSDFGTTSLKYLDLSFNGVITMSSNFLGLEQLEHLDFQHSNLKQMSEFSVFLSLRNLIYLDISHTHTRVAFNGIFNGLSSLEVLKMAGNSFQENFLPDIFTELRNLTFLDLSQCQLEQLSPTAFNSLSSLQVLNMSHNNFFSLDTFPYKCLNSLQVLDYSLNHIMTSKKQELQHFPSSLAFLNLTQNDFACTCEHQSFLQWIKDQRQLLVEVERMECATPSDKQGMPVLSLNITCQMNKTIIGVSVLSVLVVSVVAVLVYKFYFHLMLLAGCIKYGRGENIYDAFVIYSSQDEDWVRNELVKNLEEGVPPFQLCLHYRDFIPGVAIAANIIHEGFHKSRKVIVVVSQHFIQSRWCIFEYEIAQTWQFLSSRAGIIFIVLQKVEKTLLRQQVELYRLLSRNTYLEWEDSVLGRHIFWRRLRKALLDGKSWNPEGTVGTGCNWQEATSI

- IC50 (Toll-like receptor 4): > 10000 nM
- IC50 (Toll-like receptor 7): 1.4 nM
- Tmax [1]: 5 h
- IC50 (Toll-like receptor 8): 4.2 nM
Compound: Cc1cc(-c2[nH]c3ccc(C4CCNCC4)cc3c2C(C)C)cc(C)n1
- Activity (Mus musculus [2]): 93%
- Activity (Mus musculus [3]): 69%
